Experimental data from US20240091267A1, “PRE-TREATMENT OF MSC WITH PPARB/DELTA AGONIST FOR TREATMENT OF ISCHEMIA-REPERFUSION INJURY” (Universite de Montpellier, priority 2020, published 2024).

Test system: H9c2 cardiomyocytes
Experiment: Transwell co-culture of MSC with H9c2 exposed to H2O2, specific DNA fragmentation in H9c2
Assay type: cell-based, rattus norvegicus
Settings: vs naive MSC
Protocol: FIG. 7: Increased anti-apoptotic effects of PPARβ/δ-primed MSC on cardiomyocytes. (A) After 24 hours of MSC pharmacological preconditioning using PPARβ/δ agonist, cells were co-cultured using transwells (upper chamber) with H9c2 (lower chamber). Both cultures were exposed to 4 hours of 350 μM of H2O2 in minimal medium (serum deprivation). At the end of the protocol, specific DNA fragmentation was quantified in H9c2 cells and values were compared with those obtained for co-cultures with naive MSC or MSC pre-treated with PPARβ/δ antagonists (GSK0660 or GSK03787) and exposed to 350 H2O2μM (B, C, D) Scatter dot plot and bars were presented for specific DNA fragmentation quantified in H9c2 at the end of the protocols. Data (mean±SD for each group of treatment) were normalized by values obtained with naive MSC/H2O2 and compared using Kruskal-Wallis (Dunn's post hoc test). (B): data were obtained using the condition 1 protocol. (C): the condition 2 protocol P was followed and p value was noted **** for p<0.0001 (MSC, n=16 independent cultures vs MSC/H2O2, n=18). For the data obtained with condition 3 protocol (D), p value was noted * for p=0.0436 (MSC+1 μM GSK0660/H2O2, n=6 vs MSC/H2O2, n=10).
H9c2, rattus norvegicus cardiomyocytes, were cultured in Dulbecco's modified Eagle's medium (DMEM), supplemented with 10% fetal bovine serum (FBS), 100 Units/mL penicillin, and 100 μg/mL streptomycin. To induce apoptosis, H9c2 were cultured in a minimal medium (without FBS) containing 350 μM of H2O2 during 4 hours. In order to evaluate the effect of MSCs on cardiomyocytes, a co-culture assay was designed using the transwell system to avoid cell-cell contact. 15,000 cardiomyocytes (lower part) were plated per well of a 12-well dish with or 15,000 MSC (upper part) in presence of 350 OA of H2O2. Two different protocols of co-culture were performed. In protocol 1, H9c2 and co-cultured MSC were exposed to H2O2(with serum deprivation). In protocol 2, H9c2 were exposed to H2O2 in minimal medium during 4 hours and after a wash, cells were co-cultured in complete medium with MSC. In protocol 3, H9c2 were cultured in presence of H2O2 during 4 hours in regular medium deprived in serum, which was continued for an extra 1 hour. Then the co-culture of H9c2 with MSC was performed in complete medium for 1 hour. At the end of all protocols, H9c2 were recovered for apoptosis and RT-qPCR analysis.
DNA fragmentation was quantified in vitro on cell lysates with an enzyme-linked immunosorbent assay kit (Cell Death ELISA; Roche Diagnostics) designed to measure of histone-complexed DNA fragments (mono- and oligonucleosomes) out of the cytoplasm of cells after the induction of apoptosis.
To determine the role of PPARβ/δ on MSC-induced protective effect on cardiomyocytes we designed and developed three protocols in order to mimic the stress received by MSC when transplanted into infarcted tissues. The first protocol consisted in co-culturing naive or primed MSC with H9c2 exposed to 350 μM of H2O2 for 4 hours using transwell. The second protocol consisted in exposing […] μM of H2O2 for 4 hours before to co-culture them with naive or primed MSC in a complete medium. The third protocol consisted in exposing H9c2 to 350 μM of H2O2 for 4 hours followed by serum deprivation for 1 hour before to co-culture them with naive or primed MSC in a complete medium (FIG. 7A).

[1] = protocol 1: MSC pretreated 24 h with 1 μM, co-cultured with H9c2 under 350 μM H2O2 4 h
[2] = protocol 2: H9c2 exposed to 350 μM H2O2 4 h, then co-culture in complete medium with MSC pretreated with 1 μM
[3] = protocol 3: H9c2 350 μM H2O2 4 h, serum deprivation 1 h, then co-culture in complete medium with MSC pretreated with 1 μM

| SMILES | Specific DNA fragmentation in H9c2 (anti-apoptotic effect of MSC) [1] | Specific DNA fragmentation in H9c2 (anti-apoptotic effect of MSC) [2] | Specific DNA fragmentation in H9c2 (anti-apoptotic effect of MSC) [3] | Specific DNA fragmentation in H9c2 (anti-apoptotic effect of MSC) (protocol 1: MSC pretreated 24 h with 0.1 μM, co-cultured with H9c2 under 350 μM H2O2 4 h) |
| --- | --- | --- | --- | --- |
| COC(=O)c1sccc1S(=O)(=O)Nc1ccc(Nc2ccccc2)cc1OC [GSK0660] | lose their capacity to protect cardiomyocytes from apoptosis | did not change MSC protective properties | lose their capacity to protect cardiomyocytes from apoptosis |  |
| Cc1cc(SCc2sc(-c3ccc(C(F)(F)F)c(F)c3)nc2C)ccc1OCC(=O)O [GW0742] | exhibited a higher anti-apoptotic effect | induced a significant protective effect | induced a significant protective effect | exhibited a higher anti-apoptotic effect |
